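Cells were grown in 96-well plates and exposed to each compound for 48 hours at five concentrations; endpoints were interpolated linearly between bracketing concentrations, or set to the highest concentration if not reached. TGI: concentration producing complete growth inhibition.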
Assays:
Assay in all cases: DTP human tumour cell line panel, 48 h
HCT-15 colon = test system: HCT-15 colon
OVCAR-5 ovarian = test system: OVCAR-5 ovarian
COLO 205 colon = test system: COLO 205 colon
OVCAR-8 ovarian = test system: OVCAR-8 ovarian
MALME-3M melanoma = test system: MALME-3M melanoma
SNB-19 CNS = test system: SNB-19 CNS
NCI-H460 lung = test system: NCI-H460 lung
ACHN renal = test system: ACHN renal
NCI-H522 lung = test system: NCI-H522 lung
M14 melanoma = test system: M14 melanoma
NCI/ADR-RES ovarian = test system: NCI/ADR-RES ovarian
SF-295 CNS = test system: SF-295 CNS
UO-31 renal = test system: UO-31 renal
IGROV1 ovarian = test system: IGROV1 ovarian
HS 578T breast = test system: HS 578T breast
SF-539 CNS = test system: SF-539 CNS
MDA-MB-231 breast = test system: MDA-MB-231 breast
CAKI-1 renal = test system: CAKI-1 renal
SK-MEL-2 melanoma = test system: SK-MEL-2 melanoma
SF-268 CNS = test system: SF-268 CNS
HCC-2998 colon = test system: HCC-2998 colon
HL-60(TB) leukemia = test system: HL-60(TB) leukemia
CCRF-CEM leukemia = test system: CCRF-CEM leukemia
SK-MEL-5 melanoma = test system: SK-MEL-5 melanoma
RXF 393 renal = test system: RXF 393 renal
UACC-62 melanoma = test system: UACC-62 melanoma
NCI-H23 lung = test system: NCI-H23 lung
786-0 renal = test system: 786-0 renal
NCI-H226 lung = test system: NCI-H226 lung
A498 renal = test system: A498 renal
DU-145 prostate = test system: DU-145 prostate
RPMI-8226 leukemia = test system: RPMI-8226 leukemia
SW-620 colon = test system: SW-620 colon
SK-MEL-28 melanoma = test system: SK-MEL-28 melanoma
HCT-116 colon = test system: HCT-116 colon
A549 NSCLC = test system: A549 NSCLC
KM12 colon = test system: KM12 colon
SN12C renal = test system: SN12C renal
BT-549 breast = test system: BT-549 breast
MDA-MB-435 = test system: MDA-MB-435
MOLT-4 leukemia = test system: MOLT-4 leukemia
UACC-257 melanoma = test system: UACC-257 melanoma
HOP-62 NSCLC = test system: HOP-62 NSCLC
SK-OV-3 ovarian = test system: SK-OV-3 ovarian
PC-3 prostate = test system: PC-3 prostate
HT29 colon = test system: HT29 colon
SNB-75 CNS = test system: SNB-75 CNS
K-562 leukemia = test system: K-562 leukemia
TK-10 renal = test system: TK-10 renal
LOX IMVI melanoma = test system: LOX IMVI melanoma
OVCAR-3 ovarian = test system: OVCAR-3 ovarian
MCF7 breast = test system: MCF7 breast
U251 CNS = test system: U251 CNS
MDA-N = test system: MDA-N
OVCAR-4 ovarian = test system: OVCAR-4 ovarian
T-47D breast = test system: T-47D breast
EKVX NSCLC = test system: EKVX NSCLC
HOP-92 NSCLC = test system: HOP-92 NSCLC

Compound: CC1(C)N=C(C2CCCN2C(=O)OCc2ccccc2)OC1=O (centres undefined)
- TGI (HCT-15 colon): > 100 µM
- TGI (OVCAR-5 ovarian): > 100 µM
- TGI (COLO 205 colon): > 100 µM
- TGI (OVCAR-8 ovarian): > 100 µM
- TGI (MALME-3M melanoma): > 100 µM
- TGI (SNB-19 CNS): > 100 µM
- TGI (NCI-H460 lung): > 100 µM
- TGI (ACHN renal): > 100 µM
- TGI (NCI-H522 lung): > 100 µM
- TGI (M14 melanoma): > 100 µM
- TGI (NCI/ADR-RES ovarian): > 100 µM
- TGI (SF-295 CNS): > 100 µM
- TGI (UO-31 renal): > 100 µM
- TGI (IGROV1 ovarian): > 100 µM
- TGI (HS 578T breast): > 100 µM
- TGI (SF-539 CNS): > 100 µM
- TGI (MDA-MB-231 breast): > 100 µM
- TGI (CAKI-1 renal): > 100 µM
- TGI (SK-MEL-2 melanoma): > 100 µM
- TGI (SF-268 CNS): > 100 µM
- TGI (HCC-2998 colon): > 100 µM
- TGI (HL-60(TB) leukemia): > 100 µM
- TGI (CCRF-CEM leukemia): > 100 µM
- TGI (SK-MEL-5 melanoma): > 100 µM
- TGI (RXF 393 renal): 85.1 µM
- TGI (UACC-62 melanoma): > 100 µM
- TGI (NCI-H23 lung): > 100 µM
- TGI (786-0 renal): > 100 µM
- TGI (NCI-H226 lung): > 100 µM
- TGI (A498 renal): > 100 µM
- TGI (DU-145 prostate): > 100 µM
- TGI (RPMI-8226 leukemia): > 100 µM
- TGI (SW-620 colon): > 100 µM
- TGI (SK-MEL-28 melanoma): > 100 µM
- TGI (HCT-116 colon): > 100 µM
- TGI (A549 NSCLC): > 100 µM
- TGI (KM12 colon): > 100 µM
- TGI (SN12C renal): > 100 µM
- TGI (BT-549 breast): > 100 µM
- TGI (MDA-MB-435): > 100 µM
- TGI (MOLT-4 leukemia): > 100 µM
- TGI (UACC-257 melanoma): > 100 µM
- TGI (HOP-62 NSCLC): > 100 µM
- TGI (SK-OV-3 ovarian): > 100 µM
- TGI (PC-3 prostate): > 100 µM
- TGI (HT29 colon): > 100 µM
- TGI (SNB-75 CNS): > 100 µM
- TGI (K-562 leukemia): > 100 µM
- TGI (TK-10 renal): > 100 µM
- TGI (LOX IMVI melanoma): > 100 µM
- TGI (OVCAR-3 ovarian): > 100 µM
- TGI (MCF7 breast): > 100 µM
- TGI (U251 CNS): > 100 µM
- TGI (MDA-N): > 100 µM

Compound: CCOC(=O)C(Cl)(NC(=O)OCc1ccccc1)C(F)(F)F (centres undefined)
- TGI (HCT-15 colon): > 100 µM
- TGI (OVCAR-5 ovarian): > 100 µM
- TGI (COLO 205 colon): > 100 µM
- TGI (OVCAR-8 ovarian): > 100 µM
- TGI (MALME-3M melanoma): > 100 µM
- TGI (SNB-19 CNS): > 100 µM
- TGI (OVCAR-4 ovarian): > 100 µM
- TGI (ACHN renal): > 100 µM
- TGI (NCI-H522 lung): > 100 µM
- TGI (M14 melanoma): > 100 µM
- TGI (NCI/ADR-RES ovarian): > 100 µM
- TGI (SF-295 CNS): > 100 µM
- TGI (UO-31 renal): > 100 µM
- TGI (IGROV1 ovarian): > 100 µM
- TGI (HS 578T breast): > 100 µM
- TGI (SF-539 CNS): > 100 µM
- TGI (MDA-MB-231 breast): > 100 µM
- TGI (CAKI-1 renal): > 100 µM
- TGI (SK-MEL-2 melanoma): > 100 µM
- TGI (SF-268 CNS): > 100 µM
- TGI (HCC-2998 colon): > 100 µM
- TGI (HL-60(TB) leukemia): > 100 µM
- TGI (CCRF-CEM leukemia): > 100 µM
- TGI (SK-MEL-5 melanoma): > 100 µM
- TGI (RXF 393 renal): > 100 µM
- TGI (T-47D breast): > 100 µM
- TGI (NCI-H23 lung): > 100 µM
- TGI (786-0 renal): > 100 µM
- TGI (NCI-H226 lung): > 100 µM
- TGI (EKVX NSCLC): > 100 µM
- TGI (A498 renal): > 100 µM
- TGI (DU-145 prostate): > 100 µM
- TGI (RPMI-8226 leukemia): > 100 µM
- TGI (SW-620 colon): > 100 µM
- TGI (SK-MEL-28 melanoma): > 100 µM
- TGI (HOP-92 NSCLC): > 100 µM
- TGI (HCT-116 colon): > 100 µM
- TGI (A549 NSCLC): > 100 µM
- TGI (KM12 colon): > 100 µM
- TGI (SN12C renal): > 100 µM
- TGI (MDA-MB-435): > 100 µM
- TGI (MOLT-4 leukemia): > 100 µM
- TGI (UACC-257 melanoma): > 100 µM
- TGI (HOP-62 NSCLC): > 100 µM
- TGI (SK-OV-3 ovarian): > 100 µM
- TGI (PC-3 prostate): > 100 µM
- TGI (HT29 colon): > 100 µM
- TGI (SNB-75 CNS): > 100 µM
- TGI (K-562 leukemia): > 100 µM
- TGI (TK-10 renal): > 100 µM
- TGI (LOX IMVI melanoma): > 100 µM
- TGI (OVCAR-3 ovarian): > 100 µM
- TGI (MCF7 breast): > 100 µM
- TGI (U251 CNS): > 100 µM
- TGI (MDA-N): > 100 µM

Source: PubChem BioAssay (NCI)
